According to patent publication US12428406B2 (PMV Pharmaceuticals, Inc., priority 2019, dated 2025):

target: T1, p53 Y220C (Homo sapiens, UniProt P04637, Y220C); experiment: In vitro DNA binding activity assay (HTRF / TR-FRET): stabilization of p53 Y220C and increase of its DNA binding activity; format: biochemical; details: recombinant His-tagged p53 Y220C DNA binding domain (aa 94-312), biotin-labeled consensus DNA, incubated at 27° C. or 29° C. for 60 min
T1 construct: The recombinant protein was a truncation mutant containing only amino acids 94-312 of p53; made in house; host or cells: E. coli
T1 sequence (P04637 94-312, change not shown): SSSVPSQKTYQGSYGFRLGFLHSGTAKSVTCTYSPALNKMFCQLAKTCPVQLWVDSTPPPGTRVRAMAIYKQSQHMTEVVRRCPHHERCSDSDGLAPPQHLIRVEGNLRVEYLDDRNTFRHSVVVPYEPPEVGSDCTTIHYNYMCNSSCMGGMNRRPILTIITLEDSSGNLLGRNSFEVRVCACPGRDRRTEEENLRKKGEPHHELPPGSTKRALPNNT
How it was run: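 Homogeneous time-resolved fluorescence with E. coli-derived p53 Y220C and biotinylated consensus DNA. Room-temperature incubations of 15 and 20 min precede reading. SC150 denotes the compound concentration required for 50% increased DNA binding.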

SMILES	SC150 (concentration of the compound required to increase the DNA binding activity by 50%)
CCC(=O)OC(COC)CN1CCC(Nc2cccc3c2cc(C#CCNc2ccc(S(N)(=O)=O)cc2OC)n3CC(F)(F)F)CC1 (stereo not shown) [Compound 610A, 1-methoxy-3-{4-[(2-{3-[(2-methoxy-4-sulfamoylphenyl)amino]prop-1-yn-1-yl}-1-(2,2,2-trifluoroethyl)-1H-indol-4-yl)amino]piperidin-1-yl} propan-2-yl propanoate]	+ (+ = 0 μM ≤ SC150 < 0.05 μM)
COc1cc(S(N)(=O)=O)ccc1NCC#Cc1cc2c(NC3CCN(C[C@@H](CO)OC)CC3)cccc2n1CC(F)(F)F [Compound 632A, 4-({3-[4-({l-[(2S)-3-hydroxy-2-methoxypropyl]piperidin-4-yl}amino)-1-(2,2,2-trifluoroethyl)-1H-indol-2-yl]prop-2-yn-1-yl}amino)-3-methoxybenzene-1-sulfonamide]	+ (+ = 0 μM ≤ SC150 < 0.05 μM)
COc1cc(C(N)=O)ccc1NCC#Cc1cc2c(NC(=O)N3CCN(C)CC3)cccc2n1CC(F)(F)F [Compound 9A, N-(2-{3-[(4-carbamoyl-2-methoxyphenyl)amino]prop-1-yn-1-yl}-1-(2,2,2-trifluoroethyl)-1H-indol-4-yl)-4-methylpiperazine-1-carboxamide]	++++ (++++ = 0.2 μM ≤ SC150 < 1 μM)
COc1cc(S(C)(=O)=O)ccc1NCC#Cc1cc2c(NC3CCC4(CC3)OCCO4)cccc2n1CC(F)(F)F [Compound 64A, N-{1,4-dioxaspiro[4.5]decan-8-yl}-2-{3-[(4-methane-sulfonyl-2-methoxy-phenyl)amino]prop-1-yn-1-yl}-1-(2,2,2-trifluoroethyl)-1H-indol-4-amine]	+ (+ = 0 μM ≤ SC150 < 0.05 μM)
CNC(=O)c1ccc(NCC#Cc2cc3c(N[C@H]4CC[C@@H](C#N)CC4)cccc3n2CC(F)(F)F)c(OC)c1 [Compound 35A, 3-methoxy-N-methyl-4-{[3-(4-{[(1S,4S)-4-cyanocyclohexyl]amino}-1-(2,2,2-trifluoroethyl)-1H-indol-2-yl)prop-2-yn-1-yl]amino}benzamide]	+ (+ = 0 μM ≤ SC150 < 0.05 μM)
COc1cc(S(C)(=O)=O)ccc1NCC#Cc1cc2c(NC3CCN(C)CC3)cccc2n1CC1CO1 (stereo not shown) [Compound 517A, 2-{3-[(4-methanesulfonyl-2-methoxyphenyl)amino]prop-1-yn-1-yl}-N-(1-methylpiperidin-4-yl)-1-[(oxiran-2-yl)methyl]-1H-indol-4-amine]	+++ (+++ = 0.1 μM ≤ SC150 < 0.2 μM)
COc1cc(S(=O)(=O)Nc2ccon2)ccc1NCC#Cc1cc2c(NC3CCS(=O)(=O)CC3)cccc2n1CC(F)(F)F [Compound 1039A, 4-[(3-{4-[(1,1-dioxo-1λ^6-thian-4-yl)amino]-1-(2,2,2-trifluoroethyl)-1H-indol-2-yl}prop-2-yn-1-yl)amino]-3-methoxy-N-(1,2-oxazol-3-yl)benzene-1-sulfonamide]	+ (+ = 0 μM ≤ SC150 < 0.05 μM)
CNC(=O)c1ccc(NCC#Cc2cc3c(NC4CCN(C[C@@H](O)COC)CC4)cccc3n2CC(F)(F)F)c(OC)c1 [Compound 647A, 4-({3-[4-({1-[(2R)-2-hydroxy-3-methoxypropyl]piperidin-4-yl}amino)-1-(2,2,2-trifluoroethyl)-1H-indol-2-yl]prop-2-yn-1-yl}amino)-3-methoxy-N-methylbenzamide]	+ (+ = 0 μM ≤ SC150 < 0.05 μM)
CNC(=O)c1ccc(NCC#Cc2cc3c(N[C@H]4CC[C@@H](N5CC6(CCOCC6)C5)CC4)cccc3n2CC(F)(F)F)c(OC)c1 [Compound 296A, 3-methoxy-N-methyl-4-{[3-(4-{[(1S,4S)-4-{7-oxa-2-azaspiro[3.5]nonan-2-yl}cyclohexyl]amino}-1-(2,2,2-trifluoroethyl)-1H-indol-2-yl)prop-2-yn-1-yl]amino} benzamide]	+ (+ = 0 μM ≤ SC150 < 0.05 μM)
COc1cc(S(C)(=O)=O)ccc1NCC#Cc1cc2c(N[C@H]3CC[C@H](N(C)C)CC3)cccc2n1CC1CO1 (stereo partly drawn) [Compound 77A, (1R,4R)—N^4-(2-{3-[(4-methanesulfonyl-2-methoxyphenyl)amino]prop-1-yn-1-yl}-1-[(oxiran-2-yl)methyl]-1H-indol-4-yl)-N^1,N^1-dimethylcyclohexane-1,4-diamine]	++++ (++++ = 0.2 μM ≤ SC150 < 1 μM)
COc1cc(C(=O)NC[C@H](C)O)ccc1NCC#Cc1cc2c(N[C@@H]3CCN(C)C[C@@H]3F)cccc2n1CC(F)(F)F [Compound 961A, 4-{[3-(4-{[(3S,4R)-3-fluoro-1-methylpiperidin-4-yl]amino}-1-(2,2,2-trifluoroethyl)-1H-indol-2-yl)prop-2-yn-1-yl]amino}-N-[(2S)-2-hydroxypropyl]-3-methoxybenzamide]	+ (+ = 0 μM ≤ SC150 < 0.05 μM)
CNC(=O)c1ccc(NCC#Cc2cc3c(N[C@@H]4CCN(C)C[C@@H]4F)cccc3n2CC(F)(F)F)c(OC)c1 [Compound 804A, 4-{[3-(4-{[(3S,4R)-3-fluoro-1-methylpiperidin-4-yl]amino}-1-(2,2,2-trifluoroethyl)-1H-indol-2-yl)prop-2-yn-1-yl]amino}-3-methoxy-N-methylbenzamide]	+ (+ = 0 μM ≤ SC150 < 0.05 μM)
COc1cc(S(=O)(=O)N(CCO)CCO)ccc1NCC#Cc1cc2c(NC3CCOCC3)cccc2n1CC(F)(F)F [Compound 1007A, N,N-bis(2-hydroxyethyl)-3-methoxy-4-[(3-{4-[(oxan-4-yl)amino]-1-(2,2,2-trifluoroethyl)-1H-indol-2-yl}prop-2-yn-1-yl)amino]benzene-1-sulfonamide]	+ (+ = 0 μM ≤ SC150 < 0.05 μM)
CN1CCC(Nc2cccc3c2cc(C#CCNc2ccc(C(=O)N(C)C)s2)n3CC(F)(F)F)CC1 [Compound 525A, N,N-dimethyl-5-((3-(4-((1-methylpiperidin-4-yl)amino)-1-(2,2,2-trifluoroethyl)-1H-indol-2-yl)prop-2-yn-1-yl)amino)thiophene-2-carboxamide]	+ (+ = 0 μM ≤ SC150 < 0.05 μM)
COCC(O)CN1CCC(Nc2cccc3c2cc(C#CCNc2ccc(S(C)(=O)=O)cc2OCCO)n3CC(F)(F)F)CC1 (stereo not shown) [Compound 644A, 1-(4-{[2-(3-{[2-(2-hydroxyethoxy)-4-methanesulfonylphenyl]amino}prop-1-yn-1-yl)-1-(2,2,2-trifluoroethyl)-1H-indol-4-yl]amino}piperidin-1-yl)-3-methoxypropan-2-ol]	+ (+ = 0 μM ≤ SC150 < 0.05 μM)
COc1cc(S(N)(=O)=O)ccc1NCC#Cc1cc2c(NC3CCN(C[C@H](CO)OC)CC3)cccc2n1CC(F)(F)F [Compound 623A, 4-({3-[4-({1-[(2R)-3-hydroxy-2-methoxypropyl]piperidin-4-yl}amino)-1-(2,2,2-trifluoroethyl)-1H-indol-2-yl]prop-2-yn-1-yl}amino)-3-methoxybenzene-1-sulfonamide]	+ (+ = 0 μM ≤ SC150 < 0.05 μM)
CNC(=O)c1cc(OC)c(NCC#Cc2cc3c(N[C@H]4CCN(C)C[C@H]4F)cccc3n2CC(F)(F)F)cc1F [Compound 827A, 2-fluoro-4-{[3-(4-{[(3R,4S)-3-fluoro-1-methylpiperidin-4-yl]amino}-1-(2,2,2-trifluoroethyl)-1H-indol-2-yl)prop-2-yn-1-yl]amino}-5-methoxy-N-methylbenzamide]	+ (+ = 0 μM ≤ SC150 < 0.05 μM)
COc1cc(S(C)(=O)=O)ccc1NCC#Cc1cc2c(NC(=O)NC3CCN(CC(O)CO)CC3)cccc2n1CC(F)(F)F (stereo not shown) [Compound 15A, 1-[1-(2,3-dihydroxypropyl)piperidin-4-yl]-3-(2-{3-[(4-methanesulfonyl-2-methoxyphenyl)amino]prop-1-yn-1-yl}-1-(2,2,2-trifluoroethyl)-1H-indol-4-yl)urea]	++++ (++++ = 0.2 μM ≤ SC150 < 1 μM)
CN(C)[C@H]1CC[C@H](Nc2cccc3c2cc(C#CCNc2ccc(S(C)(=O)=O)cc2O)n3CC(F)(F)F)CC1 [Compound 80A, 5-methanesulfonyl-2-{[3-(4-{[(1S,4S)-4-(dimethylamino)cyclohexyl]amino}-1-(2,2,2-trifluoroethyl)-1H-indol-2-yl)prop-2-yn-1-yl]amino}phenol]	+ (+ = 0 μM ≤ SC150 < 0.05 μM)
N#CCOc1cc(S(N)(=O)=O)ccc1NCC#Cc1cc2c(N[C@H]3CC[C@@H](N4CC5(CCOCC5)C4)CC3)cccc2n1CC(F)(F)F [Compound 300A, 3-(cyanomethoxy)-4-{[3-(4-{[(1S,4S)-4-{7-oxa-2-azaspiro[3.5]nonan-2-yl}cyclo-hexyl]amino}-1-(2,2,2-trifluoroethyl)-1H-indol-2-yl)prop-2-yn-1-yl]amino}benzene-1-sulfonamide]	+ (+ = 0 μM ≤ SC150 < 0.05 μM)
COc1cc(S(C)(=O)=O)ccc1NCC#Cc1cc2c(N(C)[C@H]3CCN(C)C[C@H]3F)cccc2n1CC(F)(F)F (racemic) [Compound 831A, rac-N-[(3R,4S)-3-fluoro-1-methylpiperidin-4-yl]-2-{3-[(4-methanesulfonyl-2-methoxyphenyl)amino]prop-1-yn-1-yl}-N-methyl-1-(2,2,2-trifluoroethyl)-1H-indol-4-amine]	+ (+ = 0 μM ≤ SC150 < 0.05 μM)
COc1cc(S(N)(=O)=O)ccc1NCC#Cc1cc2c(N[C@H]3CC[C@H](N4CCC5(CCO5)CC4)CC3)cccc2n1CC(F)(F)F [Compound 387A, 3-methoxy-4-{[3-(4-{[(1R,4R)-4-{1-oxa-7-azaspiro[3.5]nonan-7-yl}cyclohexyl]amino}-1-(2,2,2-trifluoroethyl)-1H-indol-2-yl)prop-2-yn-1-yl]amino}benzene-1-sulfonamide]	+ (+ = 0 μM ≤ SC150 < 0.05 μM)
